The values that follow come from US20060040861A1, “Method of treating, preventing, and diagnosing prostate cancer” (priority 2004, published 2006).

For one test, the system named is DU145 cells. The test is described as follows: [3H] thymidine incorporation assay. It is filed as cell-based, human. The protocol: (§1) DU145 (1.5×10^5/well), PC-3 (1.0×10^5/well) and LNCaP-FGC (2.0×10^5/well) cells were seeded into 24-well plates 24 hours before serum-starvation. Cells were deprived of serum for 48 hours, followed by incubation with leptin at indicated concentrations or 100 ng/ml IL-6 for 20 hours. In some experiments, cells were pretreated with SP600125 prior to cytokine stimulation as described below. Cells in each well were pulsed with 1 μCi of [^3H] thymidine (Amersham Pharmacia Biotech Inc., Piscataway, N.J., USA) during the final 5 hours, washed once with PBS, fixed with cold 5% trichloroacetic acid, solubilized with 0.25 M NaOH, and counted in scintillant. Each experiment was performed in quadruplicate, and the values are reported as mean±SD.
(§2) SP600125 was dissolved in DMSO to make a stock solution. Eighty-percent confluent prostate cancer cells were serum-starved for 24 hours and pretreated with SP600125 at indicated concentrations for 30 minutes, followed by leptin treatment (12.5 μg/ml): 15 minutes for Western blot analysis or 20 hours for thymidine incorporation assays. DMSO-treated cells were employed as controls.
(In general: Uptake of a labelled nucleoside into DNA is a usual measure of proliferation.)

The subject of the next test is PC-3 cells. The test is described as follows: [3H] thymidine incorporation assay. Type of test: cell-based, human. The protocol: as §1, §2
In the next test the test system is LNCaP-FGC cells. The test is described as follows: Cell proliferation with leptin and DHT. It is filed as cell-based, human. The settings on record: only in the presence of DHT.
The test system of another test is JNK. As to the kind of experiment: In vitro JNK assay on lysates of treated C2C12 myoblasts. Type of test: cell-based, murine. The settings on record: 1.0 μg/ml. The protocol: Seventy-percent confluent cells were deprived of serum for 24 hours, followed by treatment with 1 μg/ml f- or g-adiponectin or 10 μg/ml anisomycin for indicated periods. After being rinsed with cold phosphate-buffered saline, cells were harvested using a scraper and collected by centrifugation at 700×g for 10 minutes at 4° C. The cell pellets were then homogenized in cell lysis buffer (20 mM HEPES, pH 7.9, 300 mM NaCl, 1 mM Na3VO4, 1 μg/ml leupeptin, 5 μg/ml aprotinin, 1 μg/ml pepstatin, and 1 mM phenylmethylsulfonyl fluoride) and rocked gently for 30 minutes at 4° C. The homogenates were centrifuged at 15,000×g for 5 minutes at 4° C., and the supernatants were saved as cell lysates and stored at −80° C. until use.
Using the stress-activated protein kinase/JNK assay kit, JNK activity was assessed with a fusion protein of the c-Jun NH2 terminus (amino acids 1 to 89) and glutathione S-transferase as a substrate according to the manufacture's instructions with some modifications as reported before (M. Onuma, et al., supra, 2003). […] The substrate fusion protein was separated by SDS-polyacrylamide gel electrophoresis, and its phosphorylation by JNK was determined by Western blot analysis using anti-phospho-c-Jun (Ser-63) polyclonal antibody. To normalize sample variations, JNK protein levels were also determined by Western blot analysis using anti-JNK antibody.

As to “leptin: Recombinant human leptin purchased from R&D Systems; major adipose cytokine”, the “[3H] thymidine incorporation (cell proliferation), cytokine alone” value with DU145 cells (DU145, serum-deprived, leptin up to 12.5 μg/ml, IL-6 100 ng/ml or IGF-I 100 ng/ml, 20 hours) is “stimulated thymidine incorporation remarkably in a dose-dependent fashion”; in the test with PC-3 cells (PC-3, serum-deprived, leptin up to 12.5 μg/ml, IL-6 100 ng/ml or IGF-I 100 ng/ml, 20 hours) it was “stimulated thymidine incorporation remarkably in a dose-dependent fashion”. The “effect on the IGF-I stimulation of cell proliferation” value with DU145 cells (DU145, 12.5 μg/ml leptin with 100 ng/ml IGF-I, 20 hours) was “drastic, synergistic effects”; with PC-3 cells (PC-3, 12.5 μg/ml leptin with 100 ng/ml IGF-I, 20 hours), “drastic, synergistic effects”. Further, the “effect on the IL-6 stimulation of cell proliferation” value is “additive effects” in the test with DU145 cells (DU145, 12.5 μg/ml leptin with 100 ng/ml IL-6, 20 hours) and “additive effects” in the test with PC-3 cells (PC-3, 12.5 μg/ml leptin with 100 ng/ml IL-6, 20 hours). In addition, the “cell proliferation, leptin together with androgen (DHT)” value with LNCaP-FGC cells is listed as “synergistically stimulate cell proliferation”.

B1: f-adiponectin: Recombinant human full-length (non-proteolytic) adiponectin, about 30-kDa polypeptide; lot mainly HMW form (protein, UniProt Q15848 1-244, looked up)
chain: MLLLGAVLLLLALPGHDQETTTQGPGVLLPLPKGACTGWMAGIPGHPGHNGAPGRDGRDGTPGEKGEKGDPGLIGPKGDIGETGVPGAEGPRGFPGIQGRKGEPGEGAYVYRSAFSVGLETYVTIPNMPIRFTKIFYNQQNHYDGSTGKFHCNIPGLYYFAYHITVYMKDVKVSLFKKDKAMLFTYDQYQENNVDQASGSVLLHLEVGDQVWLQVYGEGERNGLYADNDNDSTFTGFLLYHDTN
modifications: full-length
notes: Recombinant human full-length (non-proteolytic) adiponectin, about 30-kDa polypeptide; lot mainly HMW form
Turning to B1, the “time of peak JNK activation after addition” value in the test with JNK was 10 min. For the same molecule, the JNK activation entry in the test with JNK (up to 60 minutes) is on record as “further stimulated JNK activation”.
